ChEMBL document CHEMBL1125272, “Synthetic approaches to the guanosine and xanthosine analogues 5-amino-3-beta-D-ribofuranosylpyrazolo[3,4-e][1,3]oxazin-7-one and 3-beta-D-ribofuranosylpyrazolo[3,4-e][1,3]oxazine-5,7-dione and studies of their antitumor potential” (J Med Chem, 1991)

System: L1210
Assay: Capacity to inhibit tumor cells in vitro using L1210 murine leukemia cells
Type: functional, cell-based
Settings: Mus musculus

Row | Compound | IC50
1 | O=c1[nH]c(=O)c2[nH]nc([C@@H]3O[C@H](CO)[C@@H](O)[C@H]3O)c2o1 | 0.2 µM
2 | NC1=NC(=O)C2N=NC([C@@H]3O[C@H](CO)[C@@H](O)[C@H]3O)=C2O1 (some centres not stated) | 100 µM
